# Reference: ChEMBL document CHEMBL5150014, “Discovery and Development of Dolastatin 10-Derived Antibody Drug Conjugate Anticancer Drugs” (J Nat Prod, 2022)
# What was measured:
# [1] = test system: BT-474; assay: Anticancer activity against human BT-474 assessed as cell growth inhibition incubated for 4 days by WST-8 assay; assay type: functional; conditions: BT-474, 96 h, time 4 day
# [2] = test system: HT-29; assay: Cytotoxicity against human HT-29 cells assessed as cell growth inhibition; assay type: functional, cell-based
# [3] = test system: HCT-116; assay: Cytotoxicity against human HCT-116 cells assessed as cell growth inhibition measured after 96 hrs by resazurin dye based assay; assay type: functional
# [4] = test system: H3396; assay: Cytotoxicity against human H3396 cells assessed as cell growth inhibition measured after 96 hrs by resazurin dye based assay; assay type: functional
# [5] = test system: MOLM-13; assay: Cytotoxicity against human MOLM-13 cells assessed as cell growth inhibition; assay type: functional, cell-based
# [6] = test system: L1210; assay: Cytotoxicity against mouse L1210 cells assessed as cell growth inhibition measured after 24 hrs; assay type: functional, cell-based; conditions: L1210, 24 h
# [7] = biological target: Tubulin; assay: Inhibition of tubulin (unknown origin) polymerization assessed as reduction in microtubule formation measured for 20 mins by spectrophotometric analysis; assay type: protein-complex assay, Homo sapiens
SMILES,GI50 [1] [nM],IC50 [2] [nM],also measured
CC[C@H](C)[C@@H]([C@@H](CC(=O)N1C[C@@H](OC)C[C@H]1[C@H](OC)[C@@H](C)C(=O)NCCc1ccccc1)OC)N(C)C(=O)[C@@H](NC(=O)[C@H](C(C)C)N(C)C)C(C)C,0.24,,
CC[C@H](C)[C@@H]([C@@H](CC(=O)N1CCC[C@H]1[C@H](OC)[C@@H](C)C(=O)NC1(C(=O)N2CCCCO2)C[C@@H]1c1ccccc1)OC)N(C)C(=O)[C@@H](NC(=O)[C@H](C(C)C)N(C)C)C(C)C (stereo partly drawn),,0.5,
CC[C@H](C)[C@@H]([C@@H](CC(=O)N1C[C@@H](O)C[C@H]1[C@H](OC)[C@@H](C)C(=O)NCCc1c(F)cccc1F)OC)N(C)C(=O)[C@@H](NC(=O)[C@H](C(C)C)N(C)C)C(C)C,0.23,,
CC[C@H](C)[C@@H]([C@@H](CC(=O)N1C[C@H](O)C[C@H]1[C@H](OC)[C@@H](C)C(=O)NCCc1ccccc1)OC)N(C)C(=O)[C@@H](NC(=O)[C@H](C(C)C)N(C)C)C(C)C,0.68,,
CC[C@H](C)[C@@H]([C@@H](CC(=O)N1CCC[C@H]1[C@H](OC)[C@@H](C)C(=O)N[C@@H](Cc1ccccc1)c1nn[nH]n1)OC)N(C)C(=O)[C@@H](NC(=O)[C@H](C(C)C)N(C)C)C(C)C,,,GI50 [3]: 6 nM; GI50 [4]: 0.09 nM
CC[C@H](C)[C@@H]([C@@H](CC(=O)N1CCC[C@H]1[C@H](OC)[C@@H](C)C(=O)N[C@H](/C=C\c1ccccc1)Cc1ccccc1)OC)N(C)C(=O)[C@@H](NC(=O)[C@H](C(C)C)N(C)CCCC(=O)O)C(C)C,,3.3,
CC[C@H](C)[C@@H]([C@@H](CC(=O)N1CCC[C@H]1[C@H](OC)[C@@H](C)C(=O)N[C@@H](Cc1ccccc1)c1nnc(-c2ccccc2)o1)OC)N(C)C(=O)[C@@H](NC(=O)[C@H](C(C)C)N(C)CCCC(=O)O)C(C)C,,0.1,
CC[C@H](C)[C@@H]1[C@H](OC)CC(=O)N2C[C@H](C[C@H]2[C@H](OC)[C@@H](C)C(=O)N[C@@H](Cc2ccccc2)C(=O)OC)NC(=O)CCCC(=O)N[C@@H](C)[C@H](NC(=O)[C@H](NC)C(C)C)C(=O)N1C,,,IC50 [5]: > 1000 nM
CCOP(=O)(OCC)[C@H](Cc1ccccc1)NC(=O)[C@H](C)[C@@H](OC)[C@@H]1CCCN1C(=O)C[C@@H](OC)[C@H]([C@@H](C)CC)N(C)C(=O)[C@@H](NC(=O)[C@H](C(C)C)N(C)C)C(C)C,,,GI50 [3]: 6 nM; GI50 [4]: 0.09 nM
CC[C@H](C)[C@@H]([C@@H](CC(=O)N1C[C@@H](N=[N+]=[N-])C[C@H]1[C@H](OC)[C@@H](C)C(=O)N[C@@H](Cc1ccccc1)C(=O)OC)OC)N(C)C(=O)[C@@H](NC(=O)[C@H](C(C)C)N(C)C)[C@H](C)N=[N+]=[N-],,,GI50 [5]: 0.057 nM
CC[C@H](C)[C@@H]([C@@H](CC(=O)N1CCC[C@H]1/C=C(\C)C(=O)N[C@@H](Cc1ccccc1)c1nccs1)OC)N(C)C(=O)[C@@H](NC(=O)[C@H](C(C)C)N(C)C)C(C)C,,,IC50 [6]: > 10000 nM
CC[C@H](C)[C@@H]([C@@H](CC(=O)N1C[C@@H](NC)C[C@H]1[C@H](OC)[C@@H](C)C(=O)NCCc1c(F)cccc1F)OC)N(C)C(=O)[C@@H](NC(=O)[C@H](C(C)C)N(C)C)C(C)C,0.34,,
CC[C@H](C)[C@@H]([C@@H](CC(=O)OC(C)(C)C)OC)N(C)C(=O)[C@@H](NC(=O)[C@H](C(C)C)N(C)C)C(C)C,,,IC50 [7]: 4.2 nM
CC[C@H](C)[C@@H]([C@@H](CC(=O)N1C[C@@H](N)C[C@H]1[C@H](OC)[C@@H](C)C(=O)NCCc1c(F)cccc1F)OC)N(C)C(=O)[C@@H](NC(=O)[C@H](C(C)C)N(C)C)C(C)C,0.17,,
CC[C@H](C)[C@@H]([C@@H](CC(=O)N1CCC[C@H]1[C@H](OC)[C@@H](C)C(=O)NC1(C(=O)N2Cc3ccccc3CO2)C[C@@H]1c1ccccc1)OC)N(C)C(=O)[C@@H](NC(=O)[C@H](C(C)C)N(C)C)C(C)C (stereo partly drawn),,1.2,
CC[C@H](C)[C@@H]([C@@H](CC(=O)N1CCC[C@H]1[C@H](OC)[C@@H](C)C(=O)N[C@H](/C=C/c1ccccc1)Cc1ccccc1)OC)N(C)C(=O)[C@@H](NC(=O)[C@H](C(C)C)N(C)CCCC(=O)O)C(C)C,,0.3,
